Series [1] has as its system DEN2. Briefly: microbe, parasite or virus in culture. The settings on record: Dengue virus, THP-1, read-out: THP-1 DEN2 assay (EC50).
Series [2] deals with DEN2. Briefly: microbe, parasite or virus in culture. The settings on record: Dengue virus, HEK-293T, read-out: 293T DEN2 assay (EC50).
Series [3] relates to DEN2. Nature of the series: microbe, parasite or virus in culture. As to conditions: Dengue virus, K562, read-out: K562 DEN2 assay (EC50).
Series [4] can be described thus: in vitro. The settings on record: dog.
The nature of series [5]: in vitro. As to conditions: rat, plasma.
Series [6] in a line: in vitro. The settings on record: human.
Series [7] is described as follows: in vitro. The settings on record: dog, intestinal s9.
The nature of series [8]: in vitro. As to conditions: human, intestinal s9.
Series [9] is described as follows: in vitro. As to conditions: human, plasma.
Series [10] can be described thus: in vitro. As to conditions: dog, plasma.
[11] abbreviates: liver s9, Liver S9 T1/2 (min) dog.
Where [12] appears, read: liver s9, Liver S9 T1/2 (min) human.

Like-named read-outs stand apart in the source and are kept apart here. Where only a bound is given, the exact number is not on record here.

By EC50 is commonly meant the concentration at which the effect is half-maximal. In general, half-life refers to how long it takes for the measured level to halve. Lower therefore signals rapid decline.

With `CCOC(=O)C(C)NP1(=O)OCC2OC(n3cnc4c(OCC)nc(N)nc43)C(C)(F)C2O1` (centres unmarked) [compound 17, 17], the figures for the half-maximal effective concentration (EC50) with DEN2 [1], with DEN2 [2] and with DEN2 [3] were 460 ± 200 nM, 3400 nM and 2790 ± 220 nM, respectively.

`CCOc1nc(N)nc2c1ncn2C1OC2COP(=O)(NC(C)C(=O)OC(C)C)OC2C1(C)F` (centres unmarked) [compound 12, 12]: the figures for the half-life in the series “in vitro [4]” (setting [11]) and in the series “in vitro [5]” (Plasma T1/2 (min) rat) were 0.933 h and below 0.0833 h, respectively.

Take `CCOc1nc(N)nc2c1ncn2[C@@H]1O[C@@H]2COP(=O)(OC(C)C)O[C@H]2[C@@]1(C)F` (some centres unmarked) [compound 4, PSI-352938]: in “in vitro [6]” (setting [12]), the half-life was above 2 h.

As for `COc1nc(N)nc2c1ncn2[C@@H]1O[C@H](COP(=O)(N[C@@H](C)C(=O)OC(C)C)Oc2ccccc2)[C@@H](O)[C@@]1(C)F` (some centres unmarked) [compound 5, PSI-353661], the half-life in the series “in vitro [4]” (liver s9) is 0.85 h; in the series “in vitro [5]” it was below 0.0833 h; in the series “in vitro [7]” it was 1.2 h; in “in vitro [8]”, above 2 h; in the series “in vitro [6]” (liver s9), 0.3 h.

Turning to `COC(=O)C(C)NP1(=O)OCC2OC(n3cnc4c(OC(C)C)nc(N)nc43)C(C)(F)C2O1` (centres unmarked) [compound 19, 19], the results for the half-life in the series “in vitro [9]”, in “in vitro [5]” (Plasma T1/2 (min) rat) and in “in vitro [10]” were 1.88 h, below 0.0833 h and above 2 h, respectively.

`CCOC(=O)C(NP1(=O)OCC2OC(n3cnc4c(OCC)nc(N)nc43)C(C)(F)C2O1)C(C)C` (centres unmarked) [compound 20, 20]: the half-life in “in vitro [4]” (setting [11]) turned out to be 1.02 h; in the series “in vitro [5]” (Plasma T1/2 (min) rat) it was 1.1 h; in “in vitro [6]” (setting [12]) it was 1.37 h.

Turning to `CCOc1nc(N)nc2c1ncn2C1OC2COP(=O)(NCC(=O)OC(C)C)OC2C1(C)F` (centres unmarked) [compound 16, 16], the values for the half-life in “in vitro [4]” (setting [11]), in “in vitro [5]” (Plasma T1/2 (min) rat) and in the series “in vitro [6]” (setting [12]) were 1.52 h, below 0.0833 h and 0.967 h, respectively.

The values are drawn from publication doi:10.1101/2020.04.13.040287v1 (biorxiv, 2020).
